Common to all, as to test: Kinase profiling in a biochemical assay panel (mobility shift assays and ELISA), %-inhibition at 1 μM; selectivity entropy
Background: In an ELISA, binding on a coated surface is turned into a signal by an enzyme label.

Test [1] deals with T1, panel of more than 300 wild-type and mutant kinases (313 kinase panel) (Homo sapiens, UniProt Q9UHD2).
T1 sequence (Q9UHD2 1-729): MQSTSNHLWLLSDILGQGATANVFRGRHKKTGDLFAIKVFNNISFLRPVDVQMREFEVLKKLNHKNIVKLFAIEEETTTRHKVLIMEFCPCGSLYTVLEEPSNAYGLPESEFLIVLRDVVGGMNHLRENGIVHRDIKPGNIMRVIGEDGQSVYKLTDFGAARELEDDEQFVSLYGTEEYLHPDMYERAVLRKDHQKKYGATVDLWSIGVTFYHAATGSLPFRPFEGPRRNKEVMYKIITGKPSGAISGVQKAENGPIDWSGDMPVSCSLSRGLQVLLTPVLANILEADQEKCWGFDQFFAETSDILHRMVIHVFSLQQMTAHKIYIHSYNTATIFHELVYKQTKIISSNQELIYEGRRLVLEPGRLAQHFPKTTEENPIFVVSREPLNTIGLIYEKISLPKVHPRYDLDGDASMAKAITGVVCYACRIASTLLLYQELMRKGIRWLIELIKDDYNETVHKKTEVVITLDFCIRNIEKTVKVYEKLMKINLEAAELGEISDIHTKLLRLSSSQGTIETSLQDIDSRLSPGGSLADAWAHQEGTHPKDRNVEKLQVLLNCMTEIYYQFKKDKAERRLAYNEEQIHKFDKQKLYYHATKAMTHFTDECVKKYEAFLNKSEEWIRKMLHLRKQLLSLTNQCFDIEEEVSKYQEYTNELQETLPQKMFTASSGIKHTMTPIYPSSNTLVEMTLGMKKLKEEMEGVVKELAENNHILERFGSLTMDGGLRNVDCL

The target of test [2] is panel of more than 300 wild-type and mutant kinases (313 kinase panel) (Homo sapiens, UniProt Q13557).
panel of more than 300 wild-type and mutant kinases (313 kinase panel) (Homo sapiens, UniProt Q13557), sequence (Q13557 whole entry, change not shown): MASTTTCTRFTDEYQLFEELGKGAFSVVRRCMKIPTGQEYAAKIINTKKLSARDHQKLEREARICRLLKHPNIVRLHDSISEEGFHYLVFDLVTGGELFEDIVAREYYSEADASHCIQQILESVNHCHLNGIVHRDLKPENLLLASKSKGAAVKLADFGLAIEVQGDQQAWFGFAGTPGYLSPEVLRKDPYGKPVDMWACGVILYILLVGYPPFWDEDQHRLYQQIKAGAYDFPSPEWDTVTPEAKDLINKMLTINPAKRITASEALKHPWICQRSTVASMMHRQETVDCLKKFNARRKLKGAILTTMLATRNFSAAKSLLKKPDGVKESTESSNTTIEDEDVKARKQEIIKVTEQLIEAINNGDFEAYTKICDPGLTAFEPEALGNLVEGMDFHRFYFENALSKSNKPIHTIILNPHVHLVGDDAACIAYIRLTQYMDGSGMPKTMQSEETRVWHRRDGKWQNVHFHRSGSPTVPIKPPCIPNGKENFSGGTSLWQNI
The target of test [3] is panel of more than 300 wild-type and mutant kinases (313 kinase panel) (Homo sapiens, UniProt P11802).
panel of more than 300 wild-type and mutant kinases (313 kinase panel) (Homo sapiens, UniProt P11802), sequence (P11802 whole entry, change not shown): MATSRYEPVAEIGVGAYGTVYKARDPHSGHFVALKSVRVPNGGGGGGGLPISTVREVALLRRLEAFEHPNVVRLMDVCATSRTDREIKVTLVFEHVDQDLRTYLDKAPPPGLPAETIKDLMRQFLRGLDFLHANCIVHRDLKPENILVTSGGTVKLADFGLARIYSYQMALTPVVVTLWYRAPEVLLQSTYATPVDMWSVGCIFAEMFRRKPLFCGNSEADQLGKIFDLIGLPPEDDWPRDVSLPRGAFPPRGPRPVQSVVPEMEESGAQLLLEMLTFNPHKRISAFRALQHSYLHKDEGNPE
The target in test [4] is T2, panel of more than 300 wild-type and mutant kinases (313 kinase panel) (Homo sapiens, UniProt Q8TD19).
T2 sequence (Q8TD19 1-979): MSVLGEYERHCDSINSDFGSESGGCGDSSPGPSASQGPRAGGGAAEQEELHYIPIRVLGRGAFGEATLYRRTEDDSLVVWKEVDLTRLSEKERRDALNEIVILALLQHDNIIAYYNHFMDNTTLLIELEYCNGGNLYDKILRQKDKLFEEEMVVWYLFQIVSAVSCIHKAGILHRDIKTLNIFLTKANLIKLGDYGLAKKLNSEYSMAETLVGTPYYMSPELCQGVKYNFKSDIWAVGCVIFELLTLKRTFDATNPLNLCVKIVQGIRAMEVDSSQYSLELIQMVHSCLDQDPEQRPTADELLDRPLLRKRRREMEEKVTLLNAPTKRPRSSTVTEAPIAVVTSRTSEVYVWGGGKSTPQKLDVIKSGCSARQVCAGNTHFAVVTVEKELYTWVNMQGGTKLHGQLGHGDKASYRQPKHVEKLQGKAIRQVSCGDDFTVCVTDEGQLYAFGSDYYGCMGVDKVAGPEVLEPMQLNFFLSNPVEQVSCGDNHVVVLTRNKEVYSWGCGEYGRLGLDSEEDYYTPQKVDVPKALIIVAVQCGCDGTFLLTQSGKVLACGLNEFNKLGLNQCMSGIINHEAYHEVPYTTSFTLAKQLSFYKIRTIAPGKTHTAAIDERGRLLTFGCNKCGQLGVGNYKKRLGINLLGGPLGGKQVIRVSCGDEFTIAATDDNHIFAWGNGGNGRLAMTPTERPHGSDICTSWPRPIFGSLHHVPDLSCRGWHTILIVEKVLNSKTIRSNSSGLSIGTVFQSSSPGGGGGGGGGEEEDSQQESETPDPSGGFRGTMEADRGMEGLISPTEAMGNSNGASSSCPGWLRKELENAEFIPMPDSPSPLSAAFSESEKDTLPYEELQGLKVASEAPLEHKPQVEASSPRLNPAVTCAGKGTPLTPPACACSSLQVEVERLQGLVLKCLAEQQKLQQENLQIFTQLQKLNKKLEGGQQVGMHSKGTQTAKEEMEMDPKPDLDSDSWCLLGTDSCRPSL
The settings on record: kinase NEK9; 1 μM.

For test [5], the target named is panel of more than 300 wild-type and mutant kinases (313 kinase panel) (Homo sapiens, UniProt O00311). The settings on record: kinase CDC7/ASK; 1 μM compound.
For test [6], the target named is T3, panel of more than 300 wild-type and mutant kinases (313 kinase panel) (Homo sapiens, UniProt Q8IWQ3).
T3 sequence (Q8IWQ3 1-736): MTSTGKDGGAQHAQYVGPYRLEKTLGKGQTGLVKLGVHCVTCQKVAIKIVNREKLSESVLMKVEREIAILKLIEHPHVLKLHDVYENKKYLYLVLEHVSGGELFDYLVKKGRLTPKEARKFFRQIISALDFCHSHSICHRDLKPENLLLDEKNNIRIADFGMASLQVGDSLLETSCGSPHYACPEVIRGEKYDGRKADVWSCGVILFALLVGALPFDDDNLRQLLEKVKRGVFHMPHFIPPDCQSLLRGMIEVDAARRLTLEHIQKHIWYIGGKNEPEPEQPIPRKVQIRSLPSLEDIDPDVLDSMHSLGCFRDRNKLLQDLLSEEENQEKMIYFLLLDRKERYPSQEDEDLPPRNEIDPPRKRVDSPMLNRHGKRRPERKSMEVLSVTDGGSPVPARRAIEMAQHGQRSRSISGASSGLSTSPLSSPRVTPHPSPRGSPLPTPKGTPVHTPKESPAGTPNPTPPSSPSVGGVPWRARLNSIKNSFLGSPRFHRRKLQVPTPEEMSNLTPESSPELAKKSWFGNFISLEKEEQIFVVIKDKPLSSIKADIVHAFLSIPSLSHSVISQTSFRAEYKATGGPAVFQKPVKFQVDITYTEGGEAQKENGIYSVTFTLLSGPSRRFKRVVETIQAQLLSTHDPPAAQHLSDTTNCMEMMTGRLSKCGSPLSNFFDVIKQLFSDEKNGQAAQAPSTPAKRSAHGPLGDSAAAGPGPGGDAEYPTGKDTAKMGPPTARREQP
The settings on record: kinase BRSK2; 1 μM compound.

Setting [7] is: kinase CDK4/CycD3, 1 μM compound.

Molecules are shown by their SMILES.

With `CNC(=O)c1cc(Oc2ccc(NC(=O)Nc3ccc(Cl)c(C(F)(F)F)c3)c(F)c2)ccn1` [regorafenib], the “%-inhibition of TBK1” value in test [1] (kinase TBK1, 1 μM) was -2.13%. In addition, in test [2] (kinase CaMK2δ, 1 μM compound), the “%-inhibition, CaMK2δ” value amounted to 1.53%. In test [3] (setting [7]), the “%-inhibition, CDK4/CycD3” value is recorded as 6.52%. Also, the “%-inhibition of NEK9” value in test [4] worked out at 2.52%. Besides, the “%-inhibition, CDC7/ASK” value in test [5] is given as -5.36%. The “%-inhibition, BRSK2” value in test [6] is on record as -15%.
For `Cc1ccc(Nc2nccc(N(C)c3ccc4c(C)n(C)nc4c3)n2)cc1S(N)(=O)=O` [pazopanib], in test [1] (kinase TBK1, 1 μM), the “%-inhibition of TBK1” value is recorded as -2.68%. For the same compound, in test [2] (kinase CaMK2δ, 1 μM compound), the “%-inhibition, CaMK2δ” value came out at 1.54%. Moreover, the “%-inhibition, CDK4/CycD3” value in test [3] (setting [7]) worked out at 16%. The “%-inhibition of NEK9” value in test [4] amounted to 3.59%. The “%-inhibition, CDC7/ASK” value in test [5] is given as -3.46%. Besides, the “%-inhibition, BRSK2” value in test [6] is listed as -2.18%.
With `CO[C@H]1C[C@@H]2CC[C@@H](C)[C@@](O)(O2)C(=O)C(=O)N2CCCC[C@H]2C(=O)O[C@H]([C@H](C)C[C@@H]2CC[C@@H](OC(=O)C(C)(CO)CO)[C@H](OC)C2)CC(=O)[C@H](C)/C=C(\C)[C@@H](O)[C@@H](OC)C(=O)[C@H](C)C[C@H](C)/C=C/C=C/C=C/1C` [temsirolimus], the “%-inhibition of TBK1” value in test [1] (kinase TBK1, 1 μM) is listed as -2.23%. Further, the “%-inhibition, CaMK2δ” value in test [2] (kinase CaMK2δ, 1 μM compound) is -4%. Besides, the “%-inhibition, CDK4/CycD3” value in test [3] (setting [7]) is reported as -2.83%. Moreover, the “%-inhibition of NEK9” value in test [4] is -8%. Besides, the “%-inhibition, CDC7/ASK” value in test [5] is recorded as -6%. In test [6], the “%-inhibition, BRSK2” value was -9%.
For the compound `Cc1cn(-c2cc(NC(=O)c3ccc(C)c(Nc4nccc(-c5cccnc5)n4)c3)cc(C(F)(F)F)c2)cn1` [nilotinib], in test [1] (1 µM), the “%-inhibition of TBK1” value was 6%. Moreover, the “%-inhibition, CaMK2δ” value in test [2] (1 µM) was 1.2%. In addition, the “%-inhibition, CDK4/CycD3” value in test [3] (1 µM) was -4%. The “%-inhibition of NEK9” value in test [4] is reported as -21%. Besides, the “%-inhibition, CDC7/ASK” value in test [5] is -7%. Moreover, the “%-inhibition, BRSK2” value in test [6] is given as -0.27%.

The record behind these values is paper PMC3961306, “Comparison of the Cancer Gene Targeting and Biochemical Selectivities of All Targeted Kinase Inhibitors Approved for Clinical Use” (PLoS ONE, 2014).
